Laboratory results: patent US5210193A, “Piperazine derivatives” (American Cyanamid Company, priority 1990, dated 1993)
≈ marks a conversion by molar mass, not a printed value. Read-outs that look alike come from different tables or passages of the source.

Tests used:
Experiment in all cases: in vitro antibacterial MIC, agar plate dilution
Type in all cases: cell-based
[1] = system: Proteus rettgeri IO 83-21; conditions: Providencia rettgeri, IO8321, 18 h, 35° C., read-out: MIC
In short: (§1)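 Agar plate dilution on Mueller-Hinton agar, inoculum approximately 10^4 CFU per organism applied with a Steers replicator. MIC (mcg/ml) is the lowest compound concentration inhibiting visible growth after 18 hours at 35° C.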

[2] = system: Pseudomonas aeruginosa VGH 84-4; conditions: 35° C.
In short: as §1

[3] = system: Staphylococcus aureus VGH 84-45; conditions: 35° C.
In short: as §1

[4] = system: Morganella morganii MOR 84-45; conditions: Morganella morganii, MOR8445, 18 h, 35° C., read-out: MIC
In short: as §1

[5] = system: Morganella morganii VHG 84-12; conditions: Morganella morganii, VHG8412, 18 h, Morganella morganii VHG 84-12 (VGH 84-12 for Example 131), 35° C., read-out: MIC
In short: as §1

[6] = system: Serratia marcescens CMC 83-74; conditions: Serratia marcescens, CMC8374, 18 h, 35° C., read-out: MIC
In short: as §1

[7] = system: Escherichia coli CMC 84-11; conditions: Escherichia coli, CMC8411, 18 h, 35° C., read-out: MIC
In short: as §1

[8] = system: Enterobacter cloacae MOR 84-30; conditions: 35° C.
In short: as §1

[9] = system: Enterobacter cloacae VGH 84-39; conditions: Enterobacter cloacae, VGH8439, 18 h, 35° C., read-out: MIC
In short: as §1

[10] = system: Proteus rettgeri CMC 84-41; conditions: Providencia rettgeri, CMC8441, 18 h, 35° C., read-out: MIC
In short: as §1

[11] = system: Streptococcus faecalis VGH 84-69; conditions: Enterococcus faecalis, VGH8469, 18 h, 35° C., read-out: MIC
In short: as §1

[12] = system: Pseudomonas aeruginosa K 84-16; conditions: Pseudomonas aeruginosa, K8416, 18 h, 35° C., read-out: MIC
In short: as §1

[13] = system: Escherichia coli CMC 84-50; conditions: Escherichia coli, CMC8450, 18 h, 35° C., read-out: MIC
In short: as §1

[14] = system: Serratia marcescens MOR 84-41; conditions: Serratia marcescens, MOR8441, 18 h, 35° C., read-out: MIC
In short: as §1

[15] = system: Streptococcus faecalis UCI 85-30; conditions: Enterococcus faecalis, UCI8530, 18 h, 35° C., read-out: MIC
In short: as §1

[16] = system: Escherichia coli VGH 84-19; conditions: Escherichia coli, VGH8419, 18 h, 35° C., read-out: MIC
In short: as §1

[17] = system: Morganella morganii CMC 84-37; conditions: 35° C.
In short: as §1

[18] = system: Klebsiella pneumoniae CMC 84-31; conditions: Klebsiella pneumoniae, CMC8431, 18 h, 35° C., read-out: MIC
In short: as §1

[19] = system: Staphylococcus aureus K 82-26; conditions: Staphylococcus aureus, K8226, 18 h, 35° C., read-out: MIC
In short: as §1

[20] = system: Pseudomonas aeruginosa CMC 83-20; conditions: Pseudomonas aeruginosa, CMC8320, 18 h, 35° C., read-out: MIC
In short: as §1

[21] = system: Klebsiella pneumoniae MOR 84-24; conditions: Klebsiella pneumoniae, MOR8424, 18 h, 35° C., read-out: MIC
In short: as §1

[22] = system: Streptococcus faecalis CMC 83-120; conditions: Enterococcus faecalis, CMC83120, 18 h, 35° C., read-out: MIC
In short: as §1

[23] = system: Pseudomonas aeruginosa VGH 84-3; conditions: Pseudomonas aeruginosa, VGH843, 18 h, 35° C., read-out: MIC
In short: as §1

[24] = system: Staphylococcus aureus VGH 84-47; conditions: Staphylococcus aureus, VGH8447, 18 h, 35° C., read-out: MIC
In short: as §1

[25] = system: Serratia marcescens K 84-18; conditions: Serratia marcescens, K8418, 18 h, 35° C., read-out: MIC
In short: as §1

[26] = system: Providencia stuarti CMC 83-3; conditions: Providencia, CMC833, 18 h, 35° C., read-out: MIC
In short: as §1

Escherichia coli LL 311 = conditions: Escherichia coli, LL311, 18 h, 35° C., read-out: MIC
In short: as §1

[27] = system: Serratia marcescens VGH 84-30; conditions: Serratia marcescens, VGH8430, 18 h, 35° C., read-out: MIC
In short: as §1

[28] = system: Staphylococcus aureus ATTC 29213; conditions: 35° C.
In short: as §1

[29] = system: Streptococcus faecalis UCI 85-19; conditions: Enterococcus faecalis, UCI8519, 18 h, 35° C., read-out: MIC
In short: as §1

[30] = system: Enterobacter cloacae K 84-10; conditions: Enterobacter cloacae, K8410, 18 h, 35° C., read-out: MIC
In short: as §1

[31] = Pseudomonas aeruginosa, VGH844, 18 h, read-out: MIC
[32] = Staphylococcus aureus, VGH8445, 18 h, read-out: MIC
[33] = Enterobacter cloacae, MOR8430, 18 h, read-out: MIC
[34] = Staphylococcus aureus, ATTC29213, 18 h, read-out: MIC

Row | SMILES | MIC [1] [µg/mL] | MIC [4] [µg/mL] | MIC [5] [µg/mL] | MIC [6] [µg/mL] | MIC [7] [µg/mL] | MIC [9] [µg/mL] | MIC [10] [µg/mL] | MIC [11] [µg/mL] | MIC [12] [µg/mL] | MIC [13] [µg/mL] | MIC [14] [µg/mL] | MIC [15] [µg/mL] | MIC [16] [µg/mL] | MIC [18] [µg/mL] | MIC [19] [µg/mL] | MIC [20] [µg/mL] | MIC [21] [µg/mL] | MIC [22] [µg/mL] | MIC [23] [µg/mL] | MIC [24] [µg/mL] | also measured
1 | O=C(O)c1cn(C2CC2)c2cc(N3CCNC(c4ccco4)C3)c(F)cc2c1=O (stereo not shown) [Example 62, 1-Cyclopropyl-6-fluoro-7-[3-(2-furanvl)-1-piperazinyl]-1,4-dihydro-4-oxo-3-quinolinecarboxylic acid] | 0.25 (≈ 0.629 µM) | 0.12 (≈ 0.302 µM) | 0.5 (≈ 1.26 µM) | 16 (≈ 40.3 µM) | 0.03 (≈ 0.0755 µM) | 0.12 (≈ 0.302 µM) | 0.06 (≈ 0.151 µM) | 0.5 (≈ 1.26 µM) | 8 (≈ 20.1 µM) | 0.12 (≈ 0.302 µM) | 0.5 (≈ 1.26 µM) | 1 (≈ 2.52 µM) | 0.06 (≈ 0.151 µM) | 0.12 (≈ 0.302 µM) | 0.06 (≈ 0.151 µM) | 8 (≈ 20.1 µM) | 0.25 (≈ 0.629 µM) | 1 (≈ 2.52 µM) | > 16 | 0.03 (≈ 0.0755 µM) | MIC ([2]; 18 hours): 1 µg/mL (≈ 2.52 µM); MIC ([3]; 18 hours): 0.015 µg/mL (≈ 0.0377 µM); MIC ([8]; 18 hours): 1 µg/mL (≈ 2.52 µM); MIC ([17]; 18 hours): 0.06 µg/mL (≈ 0.151 µM); MIC [25]: 0.25 µg/mL (≈ 0.629 µM); MIC [26]: 16 µg/mL (≈ 40.3 µM)
2 | CCn1cc(C(=O)O)c(=O)c2cc(F)c(N3CCNC(c4ccncc4)C3)cc21 (stereo not shown) [Example 123] | 8 (≈ 20.2 µM) | 2 (≈ 5.05 µM) | 8 (≈ 20.2 µM) | > 16 | 2 (≈ 5.05 µM) | 4 (≈ 10.1 µM) | 2 (≈ 5.05 µM) | 16 (≈ 40.4 µM) | > 16 | 4 (≈ 10.1 µM) | 8 (≈ 20.2 µM) | > 16 | 2 (≈ 5.05 µM) | 4 (≈ 10.1 µM) | 16 (≈ 40.4 µM) | > 16 | 8 (≈ 20.2 µM) | > 16 | > 16 | 2 (≈ 5.05 µM) | MIC [2, 31]: 64 µg/mL (≈ 161 µM); MIC (Escherichia coli LL 311): 1 µg/mL (≈ 2.52 µM); MIC [3, 32]: 0.5 µg/mL (≈ 1.26 µM); MIC [8, 33]: > 16 µg/mL; MIC [27]: 64 µg/mL (≈ 161 µM); MIC ([28]; 18 hours): 1 µg/mL (≈ 2.52 µM); MIC [28, 34]: 0.5 µg/mL (≈ 1.26 µM); MIC [29]: 8 µg/mL (≈ 20.2 µM); MIC [25]: 8 µg/mL (≈ 20.2 µM); MIC [26]: > 16 µg/mL; MIC [30]: 2 µg/mL (≈ 5.05 µM)
3 | CCn1cc(C(=O)O)c(=O)c2cc(F)c(N3CCN(C)C(c4ccnn4C)C3)cc21 (stereo not shown) [Example 110, 1-Ethyl-6-fluoro-1,4-dihydro-7-[4-methyl-3-(1-methyl-1H-pyrazol-5-yl) -1-piperazinyl]-4-oxo-3-quinolinecarboxylic acid] | 16 (≈ 38.7 µM) | 8 (≈ 19.3 µM) | > 16 | > 16 | 2 (≈ 4.84 µM) | 8 (≈ 19.3 µM) | 4 (≈ 9.67 µM) | 16 (≈ 38.7 µM) | > 16 | 4 (≈ 9.67 µM) | > 16 | > 16 | 4 (≈ 9.67 µM) | 8 (≈ 19.3 µM) | 16 (≈ 38.7 µM) | > 16 | 16 (≈ 38.7 µM) | 16 (≈ 38.7 µM) | > 16 | 1 (≈ 2.42 µM) | MIC [2, 31]: 128 µg/mL (≈ 310 µM); MIC (Escherichia coli LL 311): 2 µg/mL (≈ 4.84 µM); MIC [3, 32]: 0.5 µg/mL (≈ 1.21 µM); MIC [8, 33]: > 16 µg/mL; MIC [27]: > 128 µg/mL; MIC ([28]; 18 hours): 1 µg/mL (≈ 2.42 µM); MIC [28, 34]: 0.5 µg/mL (≈ 1.21 µM); MIC [29]: 8 µg/mL (≈ 19.3 µM); MIC [25]: 8 µg/mL (≈ 19.3 µM); MIC [26]: > 16 µg/mL; MIC [30]: 4 µg/mL (≈ 9.67 µM)
4 | O=C(O)c1cn(C2CC2)c2cc(N3CCNC(CF)C3)c(F)cc2c1=O (stereo not shown) [Example 131, 1-Cyclopropyl-6-fluoro-7-[3-(fluoromethyl)-1-piperazinyl]-1,4-dihydro-4-oxo-3-quinolinecarboxylic acid] | 0.12 (≈ 0.33 µM) | 0.12 (≈ 0.33 µM) | 0.12 (≈ 0.33 µM) | 4 (≈ 11 µM) | 0.015 (≈ 0.0413 µM) | 0.06 (≈ 0.165 µM) | 0.06 (≈ 0.165 µM) | 1 (≈ 2.75 µM) | 1 (≈ 2.75 µM) | 0.06 (≈ 0.165 µM) | 0.12 (≈ 0.33 µM) | 2 (≈ 5.5 µM) | 0.03 (≈ 0.0826 µM) | 0.06 (≈ 0.165 µM) | 0.5 (≈ 1.38 µM) | 1 (≈ 2.75 µM) | 0.12 (≈ 0.33 µM) | 2 (≈ 5.5 µM) | 8 (≈ 22 µM) | 0.25 (≈ 0.688 µM) | MIC [2, 31]: 1 µg/mL (≈ 2.75 µM); MIC (Escherichia coli LL 311): 0.015 µg/mL (≈ 0.0413 µM); MIC [3, 32]: 0.25 µg/mL (≈ 0.688 µM); MIC [27]: 2 µg/mL (≈ 5.5 µM); MIC ([17]; Morganella morganii, CMC8437, 18 h, read-out: MIC): 0.5 µg/mL (≈ 1.38 µM); MIC [28, 34]: 0.5 µg/mL (≈ 1.38 µM); MIC [29]: 2 µg/mL (≈ 5.5 µM); MIC [25]: 0.12 µg/mL (≈ 0.33 µM); MIC [26]: 16 µg/mL (≈ 44 µM); MIC [30]: 0.03 µg/mL (≈ 0.0826 µM)
